Publication PMC8585833, “Serum concentrations of antidepressants, antipsychotics, and antiepileptics over the bariatric surgery procedure” (European Journal of Clinical Pharmacology, 2021)
Like-named read-outs stand apart in the source and are kept apart here.

Experiments:
[1] = Distribution coefficient (logD), octanol/water; format: physicochemical; settings: two-phase system, pH 7.4; from logD
Description: (§1) Statistical analyses were performed using SPSS, version 23.0 (IBM SPSS Statistics for Windows, Armonk, NY, USA). Participants treated with the same substance before and after surgery, with one or more trough sample concentrations available, were included in the analysis. To allow interindividual and intraindividual comparisons, serum concentrations were adjusted for defined daily dose (DDD). For example, since DDD for citalopram is 20 mg, a DDD-adjusted citalopram concentration of 100 nmol/L could represent a measured concentration of 50, 100, or 200 nmol/L, given a daily dose of 10, 20, or 40 mg, respectively. To compare pre- to post-surgery concentrations, as well as pre- to post-diet concentrations, we used Wilcoxon signed rank test for substances with samples available for six or more individuals. We used Spearman’s correlation to explore the relationship between the ratio of the post-/pre-diet concentrations and (i) the distribution coefficient for the drug in question, i.e., the logarithm of the ratio of its concentration in a lipophilic and a hydrophilic solution (logD), as well as (ii) the weight loss in kilograms for pregabalin.

[2] = source not stated, cited from earlier work
[3] = Dose-adjusted steady-state trough serum concentrations before and after low-calorie diet and bariatric surgery; format: in vivo, human
From the text: We designed the study as a naturalistic longitudinal, prospective case series with intra-individual comparisons of drug concentrations over time, before and up to 1 year after the surgical procedure.
The participants contributed blood samples to the current study during routine pre-surgery visits before, and post-surgery visits about 8 weeks, 6 months, and 1 year after, the surgery. Pre-surgery sampling generally occurred twice: at an initial preoperative assessment visit, and just before surgery. Between these visits, that is, before surgery, patients were required to adhere to a low-calorie diet and show a weight reduction. The samples were stored as serum in −80 °C at a biobank, and analysed after all samples had been collected.
Before every routine visit at which the sampling was to occur, we contacted the participants by telephone to systematically obtain information on the current dose as well as adherence to the drug treatment in question over the 2 preceding weeks. Samples were excluded from the data set if non-adherence less than four elimination half-lives prior to sampling was reported; exceptions were made for occasional missed doses of fluoxetine. Half-lives applied were those described for a drug or its metabolite in the summary of product characteristics. We also asked for and recorded concomitant drug treatment, weight, and smoking status. To be able to relate potential changes in concentration to health consequences, we asked the participants during the follow-up phone calls, using an open question, if anything had happened to their health since the last visit. To obtain trough blood concentrations, we strived to schedule the routine visits before lunchtime and the participants were instructed not to take morning tablets before the sampling.
Specific substances were analysed concomitantly, using clinical routine methods, at accredited laboratories at the Department of Clinical Chemistry, Sahlgrenska University Hospital, Gothenburg, Sweden, or (as for gabapentin, hydroxybupropion, mianserine, pregabalin, paroxetine and topiramate) at the Department of Clinical Pharmacology, St. Olav’s Hospital, Trondheim, Norway. Analysis methods were based on liquid chromatography/tandem mass spectrometry or (for lamotrigine and valproic acid) enzyme immunoassay.
as §1

[4] = historical data or matched non-surgery subjects as controls; cited from earlier work

Compound | Abundance in octanol relative to water [1] | logD ([2]; octanol/water, pH 7.4) | Dose-adjusted drug concentration Median (IQR), Pre-diet/pre-surgery ([3]; human, in vivo) | Dose-adjusted drug concentration Median (IQR), post-diet ([3]; human, in vivo) | Dose-adjusted drug concentration Median (IQR), pre-diet ([3]; human, in vivo) | Dose-adjusted drug concentration Median (IQR), Post-surgery ([3]; human, in vivo, 379 days after surgery (median), trough) | Abundance in water relative to octanol [1] | Dose-adjusted drug concentration Median (IQR), Pre-diet/pre-surgery ([3]; Table 2A, antiepileptics, trough serum, adjusted for dose in DDDs) | Dose-adjusted drug concentration Median (IQR), post-diet ([3]; Table 2B, antiepileptics, trough serum, adjusted for dose in DDDs, after pre-surgery low-calorie diet) | Dose-adjusted drug concentration Median (IQR), pre-diet ([3]; Table 2B, antiepileptics, trough serum, adjusted for dose in DDDs, before low-calorie diet) | Change in dose-adjusted concentration over the pre-surgery low-calorie diet ([3]; after the pre-surgery diet, before surgery, median weight reduction 6 kg) | concentration at 379 days after surgery (median), trough ([3]; human, in vivo, Table 2A, antiepileptics, trough serum, adjusted for dose in DDDs, last observation carried forward, median 379 days after surgery, read-out: Dose-adjusted drug concentration Median (IQR), Post-surgery) | Concentration change after the bariatric surgery procedure [4] | logD ([2]; selection limit for extremely hydrophilic or extremely lipophilic substances in literature search)
CN1CCN2c3ccccc3Cc3ccccc3C2C1 (stereo not drawn) [Mianserine] | more than 1 000 fold | 3.14 | 255 (N/A) nmol/L | 201 (N/A) nmol/L | 255 (N/A) nmol/L | 183 (N/A) nmol/L |  |  |  |  |  |  |  | 
CC(C)C[C@H](CN)CC(=O)O [Pregabalin] |  | −1.35 |  |  |  |  | > 20 fold | 8.5 (5.8–16) µmol/L | 25 (8–33) µmol/L | 9.5 (7–21) µmol/L | increased | 13 µM |  | 
C=CC[C@@H]1/C=C(\C)C[C@H](C)C[C@H](OC)[C@H]2O[C@@](O)(C(=O)C(=O)N3CCCC[C@H]3C(=O)O[C@H](/C(C)=C/[C@@H]3CC[C@@H](O)[C@H](OC)C3)[C@H](C)[C@@H](O)CC1=O)[C@H](C)C[C@@H]2OC [tacrolimus] |  |  |  |  |  |  |  |  |  |  |  |  | appeared to decrease | > 4
